Values quoted from earlier work in US20110105434A1, “2-AMINO PURINE DERIVATIVES AND THEIR USE AS ANTI-HERPETIC AGENTS” (priority 2007, published 2011).

Conditions: oral maximum dose of 800 mg 5 times per day, most patients; cited from earlier work

Nc1nc2c(ncn2COCCO)c(=O)[nH]1 [acyclovir, 2-amino-9-1,-dihydro-9-[(2-hydroxyethyl)methyl]-6H-purin-6-one]
blood level: about 1.61 ng/mL
